Measured values reported in PMC5939190, “The impact of O-glycan chemistry on the stability of intrinsically disordered proteins” (Chemical Science, 2018).
Residues, ends and D or L forms follow the SMILES beside them. No end group written: not given here. *: point of attachment. αMan = OC[C@H]1O[C@H](*)[C@@H](O)[C@@H](O)[C@@H]1O; X2 = OC[C@H]1O[C@H](*)[C@H](O)[C@@H](O)[C@@H]1O; X1 = OC[C@H]1O[C@H](*)[C@H](O)[C@@H](O)[C@H]1O

Legend:
thermolysin = target: T1, thermolysin (Bacillus thermoproteolyticus, UniProt P00800); assay: Thermolysin digestion of linker variants (half-life to thermolysin degradation, MALDI-TOF MS); assay type: in vitro ADME; details: for half-life: thermolysin in digestion buffer, average ± spread of three independent trials, quantitative MALDI-TOF MS; for half-life / Half-life to thermolysin degradation, Trial 1 / Half-life to thermolysin degradation, Trial 2 / Half-life to thermolysin degradation, Trial 3: thermolysin 1 µg/µL (25 µL) added to linker 2 µg/µL (25 µL), 50 mM Tris·HCl, 0.5 mM CaCl2, pH 8.0, 37 °C, aliquots 0-420 min; for half-life / Half-life to thermolysin degradation, Trial 2 / Half-life to thermolysin degradation, Trial 3: first-order exponential decay fit; for Half-life to thermolysin degradation, Trial 1: trial 1 of three independent trials, first-order exponential decay fit of full-length linker; for Half-life to thermolysin degradation, Trial 1 / Half-life to thermolysin degradation, Trial 2 / Half-life to thermolysin degradation, Trial 3: quantitative MALDI-TOF MS with internal standard; for Half-life to thermolysin degradation, Trial 2: trial 2 of three independent trials; for Half-life to thermolysin degradation, Trial 3: trial 3 of three independent trials
T1 sequence (P00800 233-548): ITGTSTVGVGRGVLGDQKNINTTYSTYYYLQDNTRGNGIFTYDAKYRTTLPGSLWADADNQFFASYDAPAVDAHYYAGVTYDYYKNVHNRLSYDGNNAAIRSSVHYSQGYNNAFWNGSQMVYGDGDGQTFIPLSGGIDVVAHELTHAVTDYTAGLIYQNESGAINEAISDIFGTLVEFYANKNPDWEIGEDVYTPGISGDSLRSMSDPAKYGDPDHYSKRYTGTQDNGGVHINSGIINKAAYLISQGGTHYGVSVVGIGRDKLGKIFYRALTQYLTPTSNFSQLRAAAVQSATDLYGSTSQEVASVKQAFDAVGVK
Source text: O-Mannosylation is strongly preferred for proteolysis protection of a model fungal IDP. To investigate how glycan identity affects IDP proteolytic stability, we employed the naturally O-mannosylated linker from the Trichoderma reesei glycoside hydrolase family 7 cellobiohydrolase, TrCel7A, as a model.[10] This enzyme is one of the most important industrial cellulases and its linker is a well-studied O-mannosylated IDP.[11]–[14] The α-anomeric configuration was chosen since it is the only type reported so far in reducing terminal mannose residues of O-mannosylated proteins from fungi and yeasts.[8] We used […] glycopeptide synthesis[12],[15],[16] to produce four variants (Fig. 1), including the non-glycosylated linker, and measured the half-life to thermolysin degradation with MALDI-TOF MS (Fig. S1–S4 ^†).[15]–[19] […]
1.1. Experimental material and equipm ent
All commercial reagents and solvents were used as received. All LC-MS analyses were performed using a Waters Acquity TM Ultra Performance LC system equipped with Acquity UPLC® BEH 300 C4, 1.7µm, 2.1 x 100 mm column at flow rates of 0.3 mL/min. The mobile phase for LC -MS analysis was a mixture of H2O (0.1% formic acid, v /v, A) and acetonitrile (0.1% formic acid, v/v, B). […]
Mass spectrometric analysis done with a Waters SYNAPT G2-S LC-MS system was us ed to confirm the identity and homogeneity of the synthetic peptides. MALDI-TOF mas s spectrometr ic analysis done with an AB/Sciex Voyager DE-STR system was used to determine the proteolytic stability (half-life to thermolysin degradation) of the synthetic peptides (Fig. S1-S4). […]
1.3. General procedure for the thermolysin digestion of linker variants The thermolysin digestions were performed following previously described procedures.2 The digestion s of glycosylated linkers were carried out at 37 °C in 25 µL of digestion buffer (50 mM Tris·HCl buffer, 0.5 mM CaCl2, pH 8.0) with an initial linker concentration of 2 µg/µL. 25 µL of thermolysin (1 µg/µL in the digestion buffer) was added to linker solution; 1 µL aliquots were taken at specific time intervals (0, […]
µL of acetonitrile/H2O/AcOH (20/20/1, v/v) and 3 µL of standard solution [0.17 µg/µL non-glycosylated linker in acetonitrile/H2O/AcOH (20/20/1, v/v)]. Each sample was analyzed by quantitative MALDI-TOF MS to calculate the change in concentration of glycosylated linkers with time. The digestion rate was determined by monitoring and fitting data to the first-order exponential decay of the full-length glycosylated linkers over time. Digestion and analysis of non-glycosylat ed linker was done exactly a s described above for glycosylated linkers except that the Lman was used as the internal standard. All the digestion processes were repeated for three independent trials.
1.4. Temperature replica exchange simulations
Model syst ems. This work compares the dynamical and structural behavior of four variants of the Cel7A linker from Trichoderma reesei (TrCel7A). This set includes the non-glycosylated linker and the linker homogeneously decorated with O-linked α-mannosyl, α-glucosyl, and α-galactosyl moieties (Fig. S9A).
Complementary simulations and analyses were also performed with the linker decorated with longer glycans comprising mannobiosyl and galactobiosyl moieties, as well as with the putative natural decoration proposed by Harrison et al.3 (Fig. S9B) . A set of four variants of the “PT linker” was also studied, including the non -glycosylated linker and the variants with the same three glycans (Fig. S9C).
Finally, we also performed simulations of tripeptides with a single site of glyco sylation, resulting in the […]

## C[C@H](NC(=O)[C@@H]1CCCN1C(=O)[C@H](CCCNC(=N)N)NC(=O)[C@H](CCCNC(=N)N)NC(=O)[C@@H](NC(=O)[C@@H](NC(=O)[C@@H](NC(=O)[C@@H](NC(=O)CNC(=O)[C@@H]1CCCN1C(=O)[C@@H]1CCCN1C(=O)[C@H](CC(N)=O)NC(=O)CNC(=O)CNC(=O)[C@@H]1CCCN1C(=O)[C@@H]1CCCN1C(=O)[C@H](CC(N)=O)NC(=O)CN)[C@@H](C)O[C@H]1O[C@H](CO)[C@@H](O)[C@H](O)[C@@H]1O)[C@@H](C)O[C@H]1O[C@H](CO)[C@@H](O)[C@H](O)[C@@H]1O)[C@@H](C)O[C@H]1O[C@H](CO)[C@@H](O)[C@H](O)[C@@H]1O)[C@@H](C)O[C@H]1O[C@H](CO)[C@@H](O)[C@H](O)[C@@H]1O)C(=O)N[C@H](C(=O)N[C@H](C(=O)N[C@H](C(=O)NCC(=O)N[C@@H](CO[C@H]1O[C@H](CO)[C@@H](O)[C@H](O)[C@@H]1O)C(=O)N[C@@H](CO[C@H]1O[C@H](CO)[C@@H](O)[C@H](O)[C@@H]1O)C(=O)N1CCC[C@H]1C(=O)NCC(=O)N1CCC[C@H]1C(=O)O)[C@@H](C)O[C@H]1O[C@H](CO)[C@@H](O)[C@H](O)[C@@H]1O)[C@@H](C)O[C@H]1O[C@H](CO)[C@@H](O)[C@H](O)[C@@H]1O)[C@@H](C)O[C@H]1O[C@H](CO)[C@@H](O)[C@H](O)[C@@H]1O [Lman] (H-GNPPGGNPPGT(αMan)T(αMan)T(αMan)T(αMan)RRPAT(αMan)T(αMan)T(αMan)GS(αMan)S(αMan)PGP-OH; N-terminus and C-terminus assumed)
thermolysin; ratio of half-lives to thermolysin degradation, relative to LNG
  Improvement of proteolytic stability over the non-glycosylated linker LNG: 112 fold
thermolysin; ratio of half-lives to thermolysin degradation, relative to Lgal
  Proteolysis protection over the O-galactosylated linker (Lgal): 16 fold
thermolysin; ratio of half-lives to thermolysin degradation, relative to Lglc
  Proteolysis protection over the O-glucosylated linker (Lglc): 3 fold
thermolysin
  half-life: 164 ± 32.9 min
  Half-life to thermolysin degradation, Trial 1: 163.9 min
  Half-life to thermolysin degradation, Trial 2: 196.4 min
  Half-life to thermolysin degradation, Trial 3: 130.5 min

## C[C@H](NC(=O)[C@@H]1CCCN1C(=O)[C@H](CCCNC(=N)N)NC(=O)[C@H](CCCNC(=N)N)NC(=O)[C@@H](NC(=O)[C@@H](NC(=O)[C@@H](NC(=O)[C@@H](NC(=O)CNC(=O)[C@@H]1CCCN1C(=O)[C@@H]1CCCN1C(=O)[C@H](CC(N)=O)NC(=O)CNC(=O)CNC(=O)[C@@H]1CCCN1C(=O)[C@@H]1CCCN1C(=O)[C@H](CC(N)=O)NC(=O)CN)[C@@H](C)O[C@H]1O[C@H](CO)[C@H](O)[C@H](O)[C@H]1O)[C@@H](C)O[C@H]1O[C@H](CO)[C@H](O)[C@H](O)[C@H]1O)[C@@H](C)O[C@H]1O[C@H](CO)[C@H](O)[C@H](O)[C@H]1O)[C@@H](C)O[C@H]1O[C@H](CO)[C@H](O)[C@H](O)[C@H]1O)C(=O)N[C@H](C(=O)N[C@H](C(=O)N[C@H](C(=O)NCC(=O)N[C@@H](CO[C@H]1O[C@H](CO)[C@H](O)[C@H](O)[C@H]1O)C(=O)N[C@@H](CO[C@H]1O[C@H](CO)[C@H](O)[C@H](O)[C@H]1O)C(=O)N1CCC[C@H]1C(=O)NCC(=O)N1CCC[C@H]1C(=O)O)[C@@H](C)O[C@H]1O[C@H](CO)[C@H](O)[C@H](O)[C@H]1O)[C@@H](C)O[C@H]1O[C@H](CO)[C@H](O)[C@H](O)[C@H]1O)[C@@H](C)O[C@H]1O[C@H](CO)[C@H](O)[C@H](O)[C@H]1O [Lgal] (H-GNPPGGNPPGT(X1)T(X1)T(X1)T(X1)RRPAT(X1)T(X1)T(X1)GS(X1)S(X1)PGP-OH; N-terminus and C-terminus assumed)
thermolysin
  half-life: 9.8 ± 2 min
  Half-life to thermolysin degradation, Trial 1: 8.5 min
  Half-life to thermolysin degradation, Trial 2: 8.8 min
  Half-life to thermolysin degradation, Trial 3: 12.1 min
other
  enhancement of protection against proteolysis relative to non-glycosylated parent IDP: 10 fold

## C[C@H](NC(=O)[C@@H]1CCCN1C(=O)[C@H](CCCNC(=N)N)NC(=O)[C@H](CCCNC(=N)N)NC(=O)[C@@H](NC(=O)[C@@H](NC(=O)[C@@H](NC(=O)[C@@H](NC(=O)CNC(=O)[C@@H]1CCCN1C(=O)[C@@H]1CCCN1C(=O)[C@H](CC(N)=O)NC(=O)CNC(=O)CNC(=O)[C@@H]1CCCN1C(=O)[C@@H]1CCCN1C(=O)[C@H](CC(N)=O)NC(=O)CN)[C@@H](C)O[C@H]1O[C@H](CO)[C@@H](O)[C@H](O)[C@H]1O)[C@@H](C)O[C@H]1O[C@H](CO)[C@@H](O)[C@H](O)[C@H]1O)[C@@H](C)O[C@H]1O[C@H](CO)[C@@H](O)[C@H](O)[C@H]1O)[C@@H](C)O[C@H]1O[C@H](CO)[C@@H](O)[C@H](O)[C@H]1O)C(=O)N[C@H](C(=O)N[C@H](C(=O)N[C@H](C(=O)NCC(=O)N[C@@H](CO[C@H]1O[C@H](CO)[C@@H](O)[C@H](O)[C@H]1O)C(=O)N[C@@H](CO[C@H]1O[C@H](CO)[C@@H](O)[C@H](O)[C@H]1O)C(=O)N1CCC[C@H]1C(=O)NCC(=O)N1CCC[C@H]1C(=O)O)[C@@H](C)O[C@H]1O[C@H](CO)[C@@H](O)[C@H](O)[C@H]1O)[C@@H](C)O[C@H]1O[C@H](CO)[C@@H](O)[C@H](O)[C@H]1O)[C@@H](C)O[C@H]1O[C@H](CO)[C@@H](O)[C@H](O)[C@H]1O [Lglc] (H-GNPPGGNPPGT(X2)T(X2)T(X2)T(X2)RRPAT(X2)T(X2)T(X2)GS(X2)S(X2)PGP-OH; N-terminus and C-terminus assumed)
thermolysin
  half-life: 53.7 ± 8.1 min
  Half-life to thermolysin degradation, Trial 1: 53.3 min
  Half-life to thermolysin degradation, Trial 2: 62.0 min
  Half-life to thermolysin degradation, Trial 3: 45.9 min

## GNPPGGNPPGTTTTRRPATTTGSSPGP-OH [LNG]
thermolysin
  half-life: 1.5 ± 0.2 min
  Half-life to thermolysin degradation, Trial 1: 1.6 min
  Half-life to thermolysin degradation, Trial 2: 1.5 min
  Half-life to thermolysin degradation, Trial 3: 1.2 min
